Remaining activity data for 1 molecule are collected here from PMC11864979, “First-in-class ultralong-target-residence-time p38α inhibitors as a mitosis-targeted therapy for colorectal cancer” (Nature Cancer, 2025).

Read-outs that look alike come from different tables or passages of the source.

Common to all, as to assay: selectivity profiling in a panel of 340 wild-type kinases (Reaction Biology Europe)
Common to all, as to type: binding

Test [1] concerns the target T1, 340 wild-type kinases (Homo sapiens, UniProt Q8TF76).
T1 construct: purchased Reaction Biology Europe
T1 sequence (Q8TF76 1-798): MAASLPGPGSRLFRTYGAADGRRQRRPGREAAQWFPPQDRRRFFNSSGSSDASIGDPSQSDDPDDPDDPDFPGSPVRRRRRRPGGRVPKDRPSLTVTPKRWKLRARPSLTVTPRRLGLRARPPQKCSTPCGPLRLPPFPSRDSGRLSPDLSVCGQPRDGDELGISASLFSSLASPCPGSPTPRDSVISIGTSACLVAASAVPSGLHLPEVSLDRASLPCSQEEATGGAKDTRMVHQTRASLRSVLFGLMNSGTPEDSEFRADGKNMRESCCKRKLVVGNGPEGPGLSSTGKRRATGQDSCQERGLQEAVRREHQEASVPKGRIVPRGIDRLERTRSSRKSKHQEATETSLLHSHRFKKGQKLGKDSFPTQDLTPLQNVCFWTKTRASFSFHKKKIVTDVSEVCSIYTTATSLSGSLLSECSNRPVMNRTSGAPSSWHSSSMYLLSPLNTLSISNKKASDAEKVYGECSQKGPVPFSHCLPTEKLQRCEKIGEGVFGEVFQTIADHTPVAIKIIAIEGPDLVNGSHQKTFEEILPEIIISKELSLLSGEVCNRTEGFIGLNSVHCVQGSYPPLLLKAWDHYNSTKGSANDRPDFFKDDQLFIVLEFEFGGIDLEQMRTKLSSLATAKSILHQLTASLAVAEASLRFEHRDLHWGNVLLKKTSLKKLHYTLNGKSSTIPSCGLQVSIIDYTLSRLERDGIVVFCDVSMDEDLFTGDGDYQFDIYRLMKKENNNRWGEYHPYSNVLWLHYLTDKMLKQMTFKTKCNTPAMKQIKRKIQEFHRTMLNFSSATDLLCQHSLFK

Test [2] addresses T2, 340 wild-type kinases (Homo sapiens, UniProt P11309).
T2 construct: purchased Reaction Biology Europe

Test [3] deals with T3, 340 wild-type kinases (Homo sapiens, UniProt Q9P1W9).
T3 construct: purchased Reaction Biology Europe
T3 sequence (Q9P1W9 whole entry): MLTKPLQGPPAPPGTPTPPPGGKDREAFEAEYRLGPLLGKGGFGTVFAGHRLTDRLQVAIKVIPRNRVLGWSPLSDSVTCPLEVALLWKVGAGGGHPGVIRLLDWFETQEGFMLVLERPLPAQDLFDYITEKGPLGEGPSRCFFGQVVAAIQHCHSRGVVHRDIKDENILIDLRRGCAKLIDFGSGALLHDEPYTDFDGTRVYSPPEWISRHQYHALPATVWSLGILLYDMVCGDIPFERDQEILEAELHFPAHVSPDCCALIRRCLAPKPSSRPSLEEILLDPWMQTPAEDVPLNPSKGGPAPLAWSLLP

The target in test [4] is T4, 340 wild-type kinases (Homo sapiens, UniProt Q05655).
T4 construct: purchased Reaction Biology Europe
T4 sequence (Q05655 whole entry): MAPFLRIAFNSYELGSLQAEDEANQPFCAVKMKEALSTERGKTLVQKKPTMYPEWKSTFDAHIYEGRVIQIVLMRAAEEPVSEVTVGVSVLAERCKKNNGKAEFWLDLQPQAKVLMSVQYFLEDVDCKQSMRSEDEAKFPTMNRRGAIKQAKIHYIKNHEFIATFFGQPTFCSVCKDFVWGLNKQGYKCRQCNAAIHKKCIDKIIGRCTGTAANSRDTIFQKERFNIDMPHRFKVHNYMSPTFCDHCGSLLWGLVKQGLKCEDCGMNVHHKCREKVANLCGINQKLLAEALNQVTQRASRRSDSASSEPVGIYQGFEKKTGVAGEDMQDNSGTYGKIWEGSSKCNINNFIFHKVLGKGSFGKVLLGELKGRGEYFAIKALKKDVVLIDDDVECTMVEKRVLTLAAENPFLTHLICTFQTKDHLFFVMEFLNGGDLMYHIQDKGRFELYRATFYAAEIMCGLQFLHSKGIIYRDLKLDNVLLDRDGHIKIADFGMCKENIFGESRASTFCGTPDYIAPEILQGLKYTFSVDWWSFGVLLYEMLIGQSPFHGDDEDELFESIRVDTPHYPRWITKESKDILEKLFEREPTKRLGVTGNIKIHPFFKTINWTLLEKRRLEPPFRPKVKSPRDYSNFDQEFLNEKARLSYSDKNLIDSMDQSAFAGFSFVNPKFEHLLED

Test [5] concerns the target T5, 340 wild-type kinases (Homo sapiens, UniProt Q06418).
T5 construct: purchased Reaction Biology Europe
T5 sequence (Q06418 41-890): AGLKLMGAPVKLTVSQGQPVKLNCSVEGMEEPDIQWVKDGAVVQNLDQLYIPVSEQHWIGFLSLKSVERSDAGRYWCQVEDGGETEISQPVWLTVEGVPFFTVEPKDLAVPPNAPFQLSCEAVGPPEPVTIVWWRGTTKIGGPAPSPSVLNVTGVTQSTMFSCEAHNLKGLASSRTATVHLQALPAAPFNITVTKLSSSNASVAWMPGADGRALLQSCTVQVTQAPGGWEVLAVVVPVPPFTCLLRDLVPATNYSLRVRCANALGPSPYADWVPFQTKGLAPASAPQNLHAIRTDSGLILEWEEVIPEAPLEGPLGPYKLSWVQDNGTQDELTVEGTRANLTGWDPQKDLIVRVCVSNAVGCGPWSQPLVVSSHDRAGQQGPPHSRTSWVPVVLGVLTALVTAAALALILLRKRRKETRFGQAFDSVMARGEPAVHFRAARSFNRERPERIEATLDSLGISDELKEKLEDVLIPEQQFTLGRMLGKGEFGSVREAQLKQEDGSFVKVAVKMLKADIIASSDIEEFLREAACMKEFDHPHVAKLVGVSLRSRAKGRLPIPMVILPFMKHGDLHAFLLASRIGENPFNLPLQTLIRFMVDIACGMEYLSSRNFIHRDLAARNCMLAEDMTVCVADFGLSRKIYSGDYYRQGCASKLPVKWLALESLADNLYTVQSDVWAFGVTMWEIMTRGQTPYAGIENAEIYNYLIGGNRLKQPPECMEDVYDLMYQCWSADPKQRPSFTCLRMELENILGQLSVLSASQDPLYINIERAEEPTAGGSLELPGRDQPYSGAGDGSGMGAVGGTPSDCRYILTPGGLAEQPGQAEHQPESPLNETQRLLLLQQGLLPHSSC

Test [6] concerns the target T6, 340 wild-type kinases (Homo sapiens, UniProt P23458).
T6 construct: purchased Reaction Biology Europe

T6 sequence (P23458 whole entry): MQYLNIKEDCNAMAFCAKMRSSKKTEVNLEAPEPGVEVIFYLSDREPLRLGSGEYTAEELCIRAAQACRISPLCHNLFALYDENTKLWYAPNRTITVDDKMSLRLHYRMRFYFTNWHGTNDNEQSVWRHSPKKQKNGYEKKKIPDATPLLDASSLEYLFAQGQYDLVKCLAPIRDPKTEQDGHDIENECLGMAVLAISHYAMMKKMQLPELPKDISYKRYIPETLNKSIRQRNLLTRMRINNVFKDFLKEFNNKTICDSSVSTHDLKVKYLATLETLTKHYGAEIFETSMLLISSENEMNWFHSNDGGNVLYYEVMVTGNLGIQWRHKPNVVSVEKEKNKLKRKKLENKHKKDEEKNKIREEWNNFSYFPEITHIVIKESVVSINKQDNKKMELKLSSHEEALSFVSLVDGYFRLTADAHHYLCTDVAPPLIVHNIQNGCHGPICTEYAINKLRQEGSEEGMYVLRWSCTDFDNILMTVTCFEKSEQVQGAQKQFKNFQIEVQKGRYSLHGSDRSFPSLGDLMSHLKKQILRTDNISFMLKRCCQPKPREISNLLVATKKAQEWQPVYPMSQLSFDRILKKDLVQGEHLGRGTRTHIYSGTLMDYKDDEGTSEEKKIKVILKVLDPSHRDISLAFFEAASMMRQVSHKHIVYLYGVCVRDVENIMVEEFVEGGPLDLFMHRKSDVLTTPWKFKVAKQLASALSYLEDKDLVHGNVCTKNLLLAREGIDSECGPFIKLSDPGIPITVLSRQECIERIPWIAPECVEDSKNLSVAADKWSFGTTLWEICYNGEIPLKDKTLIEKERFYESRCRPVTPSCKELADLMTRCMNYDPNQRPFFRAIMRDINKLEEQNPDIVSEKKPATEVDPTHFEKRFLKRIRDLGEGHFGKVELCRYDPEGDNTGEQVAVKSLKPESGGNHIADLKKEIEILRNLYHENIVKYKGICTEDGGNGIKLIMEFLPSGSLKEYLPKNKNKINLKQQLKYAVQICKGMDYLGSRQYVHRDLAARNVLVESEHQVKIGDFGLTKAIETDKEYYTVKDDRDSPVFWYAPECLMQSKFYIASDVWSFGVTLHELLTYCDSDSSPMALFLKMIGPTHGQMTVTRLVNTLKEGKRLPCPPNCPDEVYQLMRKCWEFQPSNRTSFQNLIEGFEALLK
T2 sequence (P11309 whole entry): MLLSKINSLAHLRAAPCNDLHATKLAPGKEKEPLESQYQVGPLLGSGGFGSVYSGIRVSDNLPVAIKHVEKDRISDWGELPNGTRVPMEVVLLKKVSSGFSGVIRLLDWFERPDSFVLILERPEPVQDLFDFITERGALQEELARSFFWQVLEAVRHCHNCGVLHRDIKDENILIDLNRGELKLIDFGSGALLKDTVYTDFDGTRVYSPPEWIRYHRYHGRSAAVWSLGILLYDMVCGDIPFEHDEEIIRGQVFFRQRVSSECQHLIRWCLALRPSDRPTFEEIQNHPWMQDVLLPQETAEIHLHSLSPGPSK

For `CNC(=O)c1ccc2c(c1)C(=O)c1ccc(Nc3ccc(F)c(NC(=O)C4CC4)c3)cc1CC2` [Compound 2015], the remaining activity at 0.2 µM in test [1] (0.2 µM 2015, read-out: GSG2 residual activity) came to 105%; in test [1] (GSG2, 0.2 µM, read-out: residual activity), 105%; in test [2] (0.2 µM 2015, read-out: PIM1 residual activity), 88.3%; in test [2] (PIM1, 0.2 µM, read-out: residual activity) it was 88.3%; in test [3] (0.2 µM 2015, read-out: PIM2 residual activity), 119%; in test [3] (PIM2, 0.2 µM, read-out: residual activity) it was 119%. In addition, the remaining activity at 0.2 µM in test [4] (0.2 µM 2015, read-out: PKCdelta residual activity) worked out at 95.6%; in test [4] (PKCdelta, 0.2 µM, read-out: residual activity), 95.6%; in test [5] (0.2 µM 2015, read-out: TYRO3 residual activity), 93.9%; in test [5] (TYRO3, 0.2 µM, read-out: residual activity), 94%; in test [6] (0.2 µM 2015, read-out: JAK1 residual activity), 86.7%; in test [6] (JAK1, 0.2 µM, read-out: residual activity), 86.7%. For the same molecule, the remaining activity at 1 µM in test [1] (1 µM 2015, read-out: GSG2 residual activity) was 82.5%; in test [1] (GSG2, 1 µM, read-out: residual activity), 82.5%; in test [2] (1 µM 2015, read-out: PIM1 residual activity), 91%; in test [2] (PIM1, 1 µM, read-out: residual activity), 91%; in test [3] (1 µM 2015, read-out: PIM2 residual activity) it was 98.6%; in test [3] (PIM2, 1 µM, read-out: residual activity) it was 98.6%. Besides, the remaining activity at 1 µM in test [4] (1 µM 2015, read-out: PKCdelta residual activity) was determined as 97%; in test [4] (PKCdelta, 1 µM, read-out: residual activity), 97%; in test [5] (1 µM 2015, read-out: TYRO3 residual activity) it was 86.6%; in test [5] (TYRO3, 1 µM, read-out: residual activity), 86.6%; in test [6] (1 µM 2015, read-out: JAK1 residual activity), 99.8%; in test [6] (JAK1, 1 µM, read-out: residual activity), 99.8%.
